In ChEMBL document CHEMBL1122357, “Alkylation of opioid receptor subtypes by alpha-chlornaltrexamine produces concurrent irreversible agonistic and irreversible antagonistic activities” (J Med Chem, 1983) one finds IC50 and Ratio data, which are given here for 2 compounds.

Common to all, as to type: functional
The species entered for test [1] is Cavia porcellus. The test is described as follows: Agonistic effect on untreated guinea pig ileum preparations (GPI).
Test [2] is filed under the species Cavia porcellus. In words: Agonistic effect on beta-FNA treated guinea pig ileum preparations (GPI).
Test [3] in a line: kappa antagonistic effect on beta-FNA treated GPI (IC50 ratio=IC50 after treatment/IC50 before treatment).
Test [4] is described as follows: kappa antagonistic effect on beta-FNA and alpha-CNA treated GPI (IC50 ratio=IC50 after treatment/IC50 before treatment).

As to `Oc1ccc2c3c1O[C@H]1[C@@H](N(CCCl)CCCl)CCC4(O)C(C2)N(CC2CC2)CCC314` (stereo partly specified), the IC50 stood at 5.5 nM in test [1] and 2.4 nM in test [2].
Consider `CCOc1ccc2c(c1)C1(C)CCN(CC3CC3)C(C2=O)C1C` (stereo unspecified) [ETHYLKETAZOCINE], for which the values for the Ratio in test [3] and in test [4] were 1.21 and 10.1, respectively. In addition, the IC50 in test [1] (Cavia porcellus, Ileum) was 0.72 nM; in test [2] (Cavia porcellus, Ileum), 0.69 nM.
